Key:
miR-9-5p = miR-9-5p expression by stem loop qRT-PCR; format: cell-based, human; conditions: 24 hours, dose dependent, vs control
Procedure: 51 miRNAs were differentially expressed between the two groups.
(§1) Quantitative real time-PCR (qRT-PCR) was performed with the TaqMan method (Applied Biosystems), according to the manufacturer's instructions, and analyzed with the 7900HT Sequence Detection System (Applied Biosystems). The appropriate TaqMan probes for mRNA, miRNA, and pri-miRNA quantification were purchased from Applied Biosystems, and all reactions were performed in triplicate. The following probes were used: hsa-miR-9-5p (000583), hsa-mir-9-1 (Hs03303201_pri), hsa-miR-9-2 (Hs03303202_pri), hsa-mir-9-3 (Hs03293595_pri), CD44 (Hs01075861_ml), IGF2BP3 (Hs00559907_g1). Simultaneous quantification of ornithine decarboxylase antizyme 1 (OAZ1), or GAPDH mRNAs were used as a reference for mRNA data normalization, while small endogenous nucleolar RNA U44/U48, or U6 were used for miRNA normalization. The relative expression levels were calculated by the comparative cycle threshold (Ct) method (User Bulletin #2; Applied Biosystems). Expression analyses of pre-miRNA was performed with SYBR green PCR master mix (Applied Biosystems) and normalized for U6 RNA. All primers used for amplification steps are listed in the Supplementary materials and methods.

CD44 = experiment: nCounter GX Human Immunology gene expression in MM.1S cells; format: cell-based; conditions: 0.1 μM, 24-hr, p<0.001
Procedure: (§2) Growth inhibitory and pro-apoptotic properties of AR-42 as a single agent treatment agent have been reported previously in numerous malignancies, including MM. Because of the potent immunomodulatory effects observed with classical pan-HDACi's, immunology-related gene networks altered upon AR-42 treatment in MM cells were investigated using nCounter technology to analyze the effects of AR-42 on the expression of 511 human genes in MM.1S cells following 24-hr treatment with 0.1 μM AR-42.
Total RNA was prepared using TRIzol (Invitrogen). The RNA was analyzed by nCounter GX Human Immunology Kit, or nCounter Human microRNA Kit, as recommended by the manufacturer (NanoString Technologies, Inc.). A total of 511 immunology related genes and 800 microRNAs were profiled.
Samples analyzed by NanoString assay were normalized using the variance stabilization. The mean linkage hierarchical clustering algorithm was conducted to identify subgroups of significant miRNAs. […] The obtained data were deposited in the GEO database (accession number).

CD44 mRNA = CD44 mRNA by qRT-PCR in MM cells; format: cell-based, human
Procedure: Reduction of CD44 mRNA and protein persisted for 48 hours after treatment (FIGS. 2C-2D and data not shown).
as §1

[1] = test system: U266, RPMI, and MM1S cells; experiment: Apoptosis (annexin) and necrosis (propidium iodide) by HDAC inhibitors, FIG. 15; format: cell-based, human; conditions: 24 and 48 hours, 0.25, 0.5, and 1 μM
Procedure: Apoptosis was measured by annexin staining while cell necrosis was measured by propidium iodide staining.
CD44 surface expression was analyzed by staining cells with CD44-FITC antibody (BD Biosciences) for 30 min. in the dark, at room temperature. Apoptosis was measured by Annexin V-FITC and Propidium Iodide (PI) (Clontech) staining for 15 min. in the dark, at room temperature and data immediately acquired on a Beckman Coulter FC500 (Beckman Coulter) machine. Analysis was conducted using the FlowJo Software vX.0.7 (Tree Star Inc.). For the multiparametric analysis, the bone marrow samples were stained with CD38-PE (347687; BD Bioscience), CD138-APC (347193; BD Bioscience), CD45-ECD (A07784; Beckman Coulter), CD44-FITC (BD Bioscience) and AnnexinV-FITC (Clontech) for 30 minutes, washed with PBS and immediately analyzed with Gallios cytometer (Beckman Coulter).

MM.1S cell line = experiment: Tumor size in MM.1S subcutaneous xenograft mice; format: in vivo; conditions: 25 mg/kg, 2 injections, at sacrifice
Procedure: To investigate if AR-42 treatment could affect CD44 expression in vivo, a xenograft MM mouse model was created by injecting 1×10^7 viable cells of MM.1S cell line subcutaneously into the right flank of 12 NOD-SCID mice. […] One group of mice (n=4) received intra-peritoneal injections of 25 mg/kg AR-42, while the second group (n=4) was injected with vehicle control (8% DMSO in PBS; Ctrl). Injections were administered once a day (on Monday and Wednesday). Because the anti-tumor activity of AR-42 has been previously reported in preclinical mouse studies, mice were sacrificed 2 days after the second injection in order to avoid tumor size reduction. […] Tumors were excised and used for CD44 immunohistochemical (IHC) studies, while the serum was collected for ELISA assays. […] Thus, AR-42 down-regulates CD44 directly in vivo.
Animal experiments were performed according to OSU institutional guidelines. To generate MM xenograft model, 1×10^7 viable MM.1S cells were injected subcutaneously into the right flank of 12 […]. The tumor size was measured once a week using a caliper, and the volume was calculated in cubed millimeters (mm3), using the formula L×W2/2. […] Mice were treated with […] injection of AR-42 (25 mg/kg) or DMSO (8% in PBS) once a day on Monday and Wednesday.

histone 3 and 4 = experiment: Immunoblot of acetyl histone H3 and H4 in MM.1S cells; format: cell-based, human; conditions: 0.1 μM, 24-hr
Procedure: as §2
Cells were harvested by centrifugation, washed with PBS and lysed using buffer composed of 50 mM Tris (pH 7.5), 150 mM NaCl, 10% glycerol, 1.0% NP-40, 0.1% SDS, supplemented with protease and phosphatase inhibitors. Protein concentrations were estimated by Bradford assay and equivalent quantities of the lysates were resolved on 4-20% Tris-HCl SDS-PAGE TGX gels (Bio-Rad). Proteins were transferred to nitrocellulose membranes and stained for acetyl-histone H3 (Milipore), acetyl-histone H4 (Milipore), IGF2BP1 (Cell Signaling Technology), IGF2BP3 (IMP-3, Santa Cruz Biotechnology), CD44 (Santa Cruz Biotechnology), CD48 (Abcam), Drosha (Cell Signaling Technology), or glyceraldehyde 3-phosphate dehydrogenase (GAPDH, Cell Signaling Technology), followed by anti-mouse, or anti-rabbit IgG-HRP (GE Healthcare). Signals were developed using Pierce ECL Western Blotting Substrate (Thermo Fisher Scientific).

CC(C)[C@H](C(=O)Nc1ccc(C(=O)NO)cc1)c1ccccc1 [AR-42, (S)-N-hydroxy-4-(3-methyl-2-phenylbutanamido)benzamide]
miR-9-5p expression levels (miR-9-5p): increased | CD44 gene expression (nCounter) (CD44): most significantly downregulated | persistence of reduction of CD44 mRNA and protein after treatment (CD44 mRNA): 48 h | CD44 mRNA (CD44 mRNA; 24-hr treatment, dose-dependent, vs DMSO control): consistently downregulated | apoptosis (annexin staining) [1]: highest level of apoptosis | cell necrosis (propidium iodide staining) [1]: lowest levels of cell necrosis | tumor size vs vehicle group (MM.1S cell line): still comparable | hyperacetylation of histone 3 and 4 (histone 3 and 4): detectable hyperacetylation
